Assay results from the supplement of paper PMC10307832.

What was measured:
Experiment in all cases: relative viability (nuclei count vs DMSO), 5 days (fraction); higher = more cells survive
Irinotecan + Lapatinib = compound: CCc1c2c(nc3ccc(OC(=O)N4CCC(N5CCCCC5)CC4)cc13)-c1cc3c(c(=O)n1C2)COC(=O)[C@]3(O)CC [Irinotecan] + CS(=O)(=O)CCNCc1ccc(-c2ccc3ncnc(Nc4ccc(OCc5cccc(F)c5)c(Cl)c4)c3c2)o1 [Lapatinib] (partner 2 µM)
Method in brief: (§1)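 For relative viability, nuclei counts in treated wells were divided by those in vehicle wells. Lung cancer cell lines had been pin-tool dosed in 1536-well plates the day after seeding and cultured for 5 days, then fixed and stained in one step (final 0.05% Triton X-100, 1% formaldehyde, 1 ug/ml Hoechst) and imaged at 4×. Doses were one drug alone or a fixed anchor-drug dose plus five library-drug doses (not always all listed) in √10 steps, and values are duplicate-plate medians.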

MK-8033 + Linsitinib = compound: Cn1cc(-c2cnc3ccc4ccc(CS(=O)(=O)NCc5ccccn5)cc4c(=O)c3c2)cn1 [MK-8033] + C[C@]1(O)C[C@@H](c2nc(-c3ccc4ccc(-c5ccccc5)nc4c3)c3c(N)nccn32)C1 [Linsitinib] (partner 1 µM)
Method in brief: as §1

RU-SKI 43 + Pictilisib = compound: CC[C@@H](C)CNCC(=O)N1CCC2=C([C@@H]1COC3=CC=CC(=C3)C)C=CS2 [RU-SKI 43] + CS(=O)(=O)N1CCN(Cc2cc3nc(-c4cccc5[nH]ncc45)nc(N4CCOCC4)c3s2)CC1 [Pictilisib] (partner 1 µM)
Method in brief: as §1

MK-8033 + Navitoclax = compound: Cn1cc(-c2cnc3ccc4ccc(CS(=O)(=O)NCc5ccccn5)cc4c(=O)c3c2)cn1 [MK-8033] + CC1(C)CCC(c2ccc(Cl)cc2)=C(CN2CCN(c3ccc(C(=O)NS(=O)(=O)c4ccc(N[C@H](CCN5CCOCC5)CSc5ccccc5)c(S(=O)(=O)C(F)(F)F)c4)cc3)CC2)C1 [Navitoclax] (partner 0.5 µM)
Method in brief: as §1

| Cell Line | relative viability (Irinotecan + Lapatinib; first compound 0.6325 µM) | relative viability (Irinotecan + Lapatinib; first compound 2 µM) | relative viability (Irinotecan + Lapatinib; first compound 6.325 µM) | relative viability (Irinotecan + Lapatinib; first compound 20 µM) | relative viability (MK-8033 + Linsitinib; first compound 0.02 µM) | relative viability (MK-8033 + Linsitinib; first compound 0.06325 µM) | relative viability (MK-8033 + Linsitinib; first compound 0.2 µM) | relative viability (MK-8033 + Linsitinib; first compound 0.6325 µM) | relative viability (MK-8033 + Linsitinib; first compound 2 µM) | relative viability (RU-SKI 43 + Pictilisib; first compound 0.1 µM) | relative viability (RU-SKI 43 + Pictilisib; first compound 0.3162 µM) | relative viability (RU-SKI 43 + Pictilisib; first compound 1 µM) | relative viability (RU-SKI 43 + Pictilisib; first compound 3.162 µM) | relative viability (RU-SKI 43 + Pictilisib; first compound 10 µM) | relative viability (MK-8033 + Navitoclax; first compound 0.02 µM) | relative viability (MK-8033 + Navitoclax; first compound 0.06325 µM) | relative viability (MK-8033 + Navitoclax; first compound 0.2 µM) | relative viability (MK-8033 + Navitoclax; first compound 0.6325 µM) | relative viability (MK-8033 + Navitoclax; first compound 2 µM) |
| --- | --- | --- | --- | --- | --- | --- | --- | --- | --- | --- | --- | --- | --- | --- | --- | --- | --- | --- | --- |
| NCI-H1299 | 0.721 | 0.693 | 0.399 | 0.203 | 0.997 | 0.997 | 0.958 | 1.05 | 0.988 | 0.823 | 1.05 | 0.709 | 0.789 | 0.686 | 1.04 | 1.03 | 1.03 | 1.07 | 1.01 |
| COR-L23 | 0.383 | 0.378 | 0.177 | 0.121 | 0.88 | 0.849 | 0.824 | 0.993 | 0.902 | 0.754 | 0.756 | 0.897 | 0.986 | 0.738 | 0.938 | 0.88 | 0.948 | 1.01 | 0.885 |
| NCI-H2347 | 0.682 | 0.738 | 0.449 | 0.444 | 0.884 | 0.855 | 0.958 | 0.977 | 0.895 | 0.589 | 1.18 | 0.595 | 0.72 | 0.574 | 0.844 | 0.741 | 0.779 | 0.827 | 0.737 |
| LU99A | 0.367 | 0.309 | 0.203 | 0.197 | 0.541 | 0.517 | 0.537 | 0.479 | 0.478 | 0.312 | 0.304 | 0.321 | 0.333 | 0.292 | 0.751 | 0.667 | 0.794 | 0.819 | 0.593 |
| COR-L 105 | 0.358 | 0.431 | 0.452 | 0.272 | 0.868 | 1.04 | 0.838 | 0.902 | 0.915 | 0.436 | 0.361 | 0.377 | 0.379 | 0.364 | 0.689 | 0.777 | 0.779 | 0.694 | 0.906 |
| PC-3 [JPC-3] | 0.3 | 0.45 | 0.311 | 0.316 | 0.947 |  | 0.863 | 0.961 | 0.987 | 0.768 | 0.69 | 0.805 | 0.816 | 0.683 | 0.746 |  | 0.775 | 0.726 | 0.749 |
| NCI-H2009 | 0.308 | 0.445 | 0.294 | 0.12 | 1.21 | 1.12 | 1.07 | 1.21 | 1.11 | 0.788 | 1.06 | 0.9 | 0.883 | 0.773 | 1.16 | 1.12 | 1.08 | 1.15 | 1.14 |
| HCC-366 | 0.418 | 0.126 | 0.0457 | 0.0686 | 0.675 | 0.565 | 0.619 | 0.587 | 0.643 | 0.134 | 0.196 | 0.175 | 0.221 | 0.137 | 1.02 | 1.11 | 1.06 | 1.01 | 1.07 |
| NCI-H1703 | 0.953 | 1.32 | 0.39 | 0.158 | 0.552 | 0.762 | 0.556 | 0.89 | 0.446 | 0.253 | 0.209 | 0.263 | 0.273 | 0.219 | 0.967 | 1.08 | 0.988 | 1.12 | 0.924 |
| HARA | 0.749 | 0.339 | 0.17 | 0.118 | 0.779 | 0.78 | 0.893 | 1.03 | 0.897 | 0.524 | 0.512 | 0.435 | 0.458 | 0.318 | 1.1 | 1.14 | 1.15 | 1.1 | 1.16 |
| NCI-H1792 | 0.92 | 0.949 | 0.202 | 0.11 | 0.468 | 0.528 | 0.527 | 0.454 | 0.523 | 0.284 | 0.351 | 0.277 | 0.281 | 0.304 | 0.826 | 0.649 | 0.593 | 0.61 | 0.653 |
| HCC-827 | 0.178 | 0.222 | 0.133 | 0.16 | 0.957 |  | 0.947 | 0.968 | 0.948 | 0.994 | 0.97 | 1.19 | 1.05 | 0.94 | 0.963 |  | 0.939 | 0.918 | 0.984 |
| LXF-289 | 0.881 | 0.883 | 0.315 | 0.236 | 0.926 | 0.944 | 1.01 | 0.96 | 0.976 | 0.828 | 0.809 | 0.832 | 0.794 | 0.744 | 0.945 | 0.928 | 0.923 | 0.979 | 0.941 |
| NCI-H460 | 0.287 | 0.475 | 0.0664 | 0.0537 | 0.903 | 0.702 | 0.686 | 0.85 | 0.684 | 0.335 | 0.35 | 0.45 | 0.263 | 0.238 | 0.975 | 0.921 | 1.01 | 1.19 | 1.04 |
| NCI-H2023 | 0.484 | 0.408 | 0.129 | 0.045 | 0.651 | 0.533 | 0.473 | 0.536 | 0.415 | 0.269 | 0.213 | 0.236 | 0.264 | 0.212 | 1.08 | 0.881 | 0.933 | 0.943 | 0.847 |
| PC-14 | 0.314 | 0.262 | 0.15 | 0.16 | 0.978 | 0.843 | 0.859 | 0.939 | 0.858 | 0.644 | 0.716 | 0.756 | 0.646 | 0.462 | 0.96 | 0.944 | 0.987 | 1.06 | 1.02 |
